One compound from PMC5459853, “Cathepsin S inhibition combines control of systemic and peripheral pathomechanisms of autoimmune tissue injury” (Scientific Reports, 2017) can be followed below.

This assay relates to MRL-(Fas)lpr mice. Kind of assay: Intravenous recombinant Cat-S injection: albuminuria and glomerular ultrastructure (TEM). The note with it: 10 µg recombinant Cat-S i.v. The assay is classed as in vivo. As to the method:
Four-week-old female MRL-(Fas)lpr mice were purchased from Harlan Winkelmann (Borchen, Germany) and kept under pathogen-free conditions in a 12 hour light and dark cycle with free access to food and water. All animal experiments were performed in accordance with the European protection laws of animal welfare, and with approval by the local government authorities Regierung von Oberbayern (reference number: 55.2.1-54-2532.2-11-12). At 11 or 15 weeks of age only mice with proteinuria (Albustix, Bayer AG, Leverkusen, Germany) were randomized into five different groups (n = 10) receiving different medicated diets: Three groups were fed with chow mixed with either 3, 10 or 30 mg/kg/day RO5459072, another group’s chow was mixed with 100 mg/kg/day mycophenolate mofetil (MMF), and one group received a standard diet (vehicle). The dose of MMF was chosen according to several studies reporting strong efficacy on SLE and lupus nephritis in MRL-(Fas)lpr mice[24]–[26]. […] At the age of 19 weeks all mice were sacrificed by cervical dislocation. Blood and urine samples were collected at different time points as indicated. In other experiments 7 week old female MRL-(Fas)lpr mice were randomized into three groups (n = 3) to receive a single intravenous injection of 10 µg sterile recombinant Cat-S and one group receiving vehicle (100 µl sterile PBS). One of the Cat-S groups was pretreated with 30 mg/kg/day RO5459072 starting one week prior to Cat-S injection; another group was pretreated with a total of four daily intra-peritoneal injections of the PAR-2 inhibitor GB83 (10 mg/kg).
Urinary albumin/creatinine ratios were determined using the Mouse Albumin ELISA Quantitation set (Bethyl Laboratories, Montgomery, TX) and the Creatinine FS kit (DiaSys Diagnostic Systems, Holzheim, Germany)[44]. BUN levels were determined in plasma samples using a Urea FS kit (DiaSys Diagnostic Systems). Mouse IgM, IgG and its isotypes IgG1, IgG2a and IgG2b plasma levels were measured using ELISA Sets (Bethyl Laboratories) at a plasma dilution of 1:1,000 to 1:100,000. Double-stranded DNA IgG and IgM antibodies were quantified as described. Briefly, 96 well Nunc-Immuno plates (Thermo Fisher Scientific, Roskilde, Denmark) were coated with poly-L-lysine (1:1 diluted with PBS) and incubated for two hours. […] Absorbance was measured at 450 nm using a Tecan Microplate Reader (Biotek, Winnoski, VT). Indirect immunofluorescence was used to quantify ANA in mouse plasma. […]
Mouse kidney tissue was fixed in 2% paraformaldehyde/2% glutaraldehyde and 0.1M sodium phosphate buffer (pH 7.4) for 24 hours and processed as described. Samples were analyzed with a 1200EX electron microscope (JEOL, Tokyo, Japan).

“Also recorded” adds a separate entry of the source.

On to `Cn1cc(-c2ccc(S(=O)(=O)[C@@H]3C[C@@H](C(=O)NC4(C#N)CC4)N(C(=O)C4(C(F)(F)F)CC4)C3)c(C(F)(F)F)c2)cn1` [RO5459072], for which the Cat-S-induced albuminuria result (30 min, RO5459072 30 mg/kg/day pretreatment, GB83 10 mg/kg i.p.) is on record as “completely prevented; also recorded: entirely blocked”. Further, the “Cat-S-induced glomerular endothelial cell injury (TEM)” value (24 h) was “completely prevented”.
